The results in this text go back to patent US6191115A, “C-terminus modified heptapeptide LHRH analogs” (Abbott Laboratories, priority 1999, dated 2001).

Structures are written as SMILES. Starred links: 1 amine or outer side, 2 acyl side, 3 side chain; linkers in the order of their positions; H or OH if unused. Non-standard residues stand in square brackets, D forms with d. Residues, ends and D or L forms follow the SMILES beside them. *: point of attachment. NH(2-pyrrolidin-1-ylethyl) = C1CCN(CCN*)C1; dPhe(4-Cl) = N[C@H](Cc1ccc(Cl)cc1)C(=O)O; d2Nal = N[C@H](Cc1ccc2ccccc2c1)C(=O)O; NMeY = CN[C@@H](Cc1ccc(O)cc1)C(=O)O; Ethylenediamine = C(CN[*:2])N[*:1]; d3Pal = N[C@H](Cc1cccnc1)C(=O)O; NHPhenethyl = c1ccc(CCN*)cc1; Nicotinoyl = O=C(c1cccnc1)*; NH(CH2)7NH2 = NCCCCCCCN*; NH(CH2)6NH2 = NCCCCCCN*; NH(CH2)5NH2 = NCCCCCN*; NH(CH2)4NH2 = NCCCCN*; X10 = N=C(N)NCCCCCCN*; NH(CH2)3NH2 = NCCCN*; X12 = N=C(N)NCCCCCN*; X11 = CC(C)NCCCCCN*; NHCH2CH2OH = OCCN*; X2 = N=C(N)NCCN*; NEt2 = CCN(CC)*; X4 = CC(C)NCCN*; NHBu = CCCCN*

The assay deals with T1, LH release from rat pituitary cells (Rattus norvegicus, UniProt P30969).
T1 sequence (P30969 1-327): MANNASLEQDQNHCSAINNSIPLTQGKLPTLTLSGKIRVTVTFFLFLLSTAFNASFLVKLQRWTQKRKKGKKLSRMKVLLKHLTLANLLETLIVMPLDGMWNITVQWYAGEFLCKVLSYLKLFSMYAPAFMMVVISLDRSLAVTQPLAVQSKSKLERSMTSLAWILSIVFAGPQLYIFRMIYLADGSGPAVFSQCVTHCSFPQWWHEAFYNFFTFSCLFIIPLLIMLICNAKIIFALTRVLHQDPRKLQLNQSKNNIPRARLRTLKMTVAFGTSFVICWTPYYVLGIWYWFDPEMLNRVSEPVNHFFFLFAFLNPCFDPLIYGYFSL
Kind of assay: in vitro inhibition of LH release from rat pituitary cells (pA2). The class given is cell-based. As to conditions: pA2 = negative logarithm of antagonist concentration required to shift the response curve of the agonist leuprolide to two-fold higher concentration. How it is done:
Representative compounds of the present invention were evaluated in vitro for inhibition of LH release from rat pituitary cells (pA2). Methods for the assay procedures arc described by F. Haviv, et al. J. Med. Chem., 32:2340-2344 (1989). Values of pA2 are the negative logarithms of the concentration of the particular antagonist test compound required to shift the response curve produced by the agonist leuprolide to two-fold higher concentration. Typically values of 7.0 or greater are indicative of good LHRH antagonist potency, with values of 8.0 or greater being preferred. Leuprolide LHRH agonist, disclosed and claimed in U.S. Pat. No. 4,005,063, has the structure 5-oxo-Pro^1 -His^2 -Trp^3 -Ser^4 -Tyr^5 -D-Leu^6 -Leu^7 -Arg^8 -Pro^9 -NHEt.

In the case of `CCCCNC(=O)[C@H](CC(C)C)NC(=O)[C@@H](CCCCNC(=O)c1cccnc1)NC(=O)[C@H](Cc1ccc(O)cc1)N(C)C(=O)[C@H](CO)NC(=O)[C@@H](Cc1cccnc1)NC(=O)[C@@H](Cc1ccc(Cl)cc1)NC(=O)[C@@H](Cc1ccc2ccccc2c1)NC(C)=O` [Example 1, NAcD2Nal-D4ClPhe-D3Pal-Ser-NMeTyr-DLys(Nic)-Leu-NH-nBu] (Ac-[d2Nal][dPhe(4-Cl)][d3Pal]S[NMeY][dK](Nicotinoyl)L-NHBu), the “LHRH antagonist potency (pA2)” value came to 7.90.
As for `CC(=O)N[C@H](Cc1ccc2ccccc2c1)C(=O)N[C@H](Cc1ccc(Cl)cc1)C(=O)N[C@H](Cc1cccnc1)C(=O)N[C@@H](CO)C(=O)N(C)[C@@H](Cc1ccc(O)cc1)C(=O)N[C@H](CCCCNC(=O)c1cccnc1)C(=O)N[C@@H](CC(C)C)C(=O)NCCN` [Example 2, NAcD2Nal-D4ClPhe-D3Pal-Ser-NMeTyr-DLys(Nic)-Leu-NH--(CH2)2 NH2] (Ac-[d2Nal][dPhe(4-Cl)][d3Pal]S[NMeY][dK](Nicotinoyl)L-Ethylenediamine), the figure is 9.58; as for `CC(=O)N[C@H](Cc1ccc2ccccc2c1)C(=O)N[C@H](Cc1ccc(Cl)cc1)C(=O)N[C@H](Cc1cccnc1)C(=O)N[C@@H](CO)C(=O)N(C)[C@@H](Cc1ccc(O)cc1)C(=O)N[C@H](CCCCNC(=O)c1cccnc1)C(=O)N[C@@H](CC(C)C)C(=O)NCCN1CCCC1` [Example 3, NAcD2Nal-D4ClPhe-D3Pal-Ser-NMeTyr-DLys(Nic)-Leu-NH--(CH2)2 -(1-pyrrolidine)] (Ac-[d2Nal][dPhe(4-Cl)][d3Pal]S[NMeY][dK](Nicotinoyl)L-{NH(2-pyrrolidin-1-ylethyl)}), 11.27.
As for `CCN(CC)C(=O)[C@H](CC(C)C)NC(=O)[C@@H](CCCCNC(=O)c1cccnc1)NC(=O)[C@H](Cc1ccc(O)cc1)N(C)C(=O)[C@H](CO)NC(=O)[C@@H](Cc1cccnc1)NC(=O)[C@@H](Cc1ccc(Cl)cc1)NC(=O)[C@@H](Cc1ccc2ccccc2c1)NC(C)=O` [Example 4, NAcD2Nal-D4ClPhe-D3Pal-Ser-NMeTyr-DLys(Nic)-Leu-N(CH2 CH3)2] (Ac-[d2Nal][dPhe(4-Cl)][d3Pal]S[NMeY][dK](Nicotinoyl)L-NEt2), the figure is 7.96; as for `CC(=O)N[C@H](Cc1ccc2ccccc2c1)C(=O)N[C@H](Cc1ccc(Cl)cc1)C(=O)N[C@H](Cc1cccnc1)C(=O)N[C@@H](CO)C(=O)N(C)[C@@H](Cc1ccc(O)cc1)C(=O)N[C@H](CCCCNC(=O)c1cccnc1)C(=O)N[C@@H](CC(C)C)C(=O)NCCCCCCN` [Example 5, NAcD2Nal-D4ClPhe-D3Pal-Ser-NMeTyr-DLys(Nic)-Leu-NH--(CH2)6 NH2] (Ac-[d2Nal][dPhe(4-Cl)][d3Pal]S[NMeY][dK](Nicotinoyl)L-{NH(CH2)6NH2}), 9.91; as for `CC(=O)N[C@H](Cc1ccc2ccccc2c1)C(=O)N[C@H](Cc1ccc(Cl)cc1)C(=O)N[C@H](Cc1cccnc1)C(=O)N[C@@H](CO)C(=O)N(C)[C@@H](Cc1ccc(O)cc1)C(=O)N[C@H](CCCCNC(=O)c1cccnc1)C(=O)N[C@@H](CC(C)C)C(=O)NCCCCN` [Example 6, NAcD2Nal-D4ClPhe-D3Pal-Ser-NMeTyr-DLys(Nic)-Leu-NH--(CH2)4 NH2] (Ac-[d2Nal][dPhe(4-Cl)][d3Pal]S[NMeY][dK](Nicotinoyl)L-{NH(CH2)4NH2}), 9.90.
For `CC(=O)N[C@H](Cc1ccc2ccccc2c1)C(=O)N[C@H](Cc1ccc(Cl)cc1)C(=O)N[C@H](Cc1cccnc1)C(=O)N[C@@H](CO)C(=O)N(C)[C@@H](Cc1ccc(O)cc1)C(=O)N[C@H](CCCCNC(=O)c1cccnc1)C(=O)N[C@@H](CC(C)C)C(=O)NCCO` [Example 7, NAcD2Nal-D4ClPhe-D3Pal-Ser-NMeTyr-DLys(Nic)-Leu-NH--(CH2)2 OH] (Ac-[d2Nal][dPhe(4-Cl)][d3Pal]S[NMeY][dK](Nicotinoyl)L-NHCH2CH2OH), the “LHRH antagonist potency (pA2)” value came to 8.95.
As for `CC(=O)N[C@H](Cc1ccc2ccccc2c1)C(=O)N[C@H](Cc1ccc(Cl)cc1)C(=O)N[C@H](Cc1cccnc1)C(=O)N[C@@H](CO)C(=O)N(C)[C@@H](Cc1ccc(O)cc1)C(=O)N[C@H](CCCCNC(=O)c1cccnc1)C(=O)N[C@@H](CC(C)C)C(=O)NCCc1ccccc1` [Example 8, NAcD2Nal-D4ClPhe-D3Pal-Ser-NMeTyr-DLys(Nic)-Leu-NH--(CH2)2 -phenyl] (Ac-[d2Nal][dPhe(4-Cl)][d3Pal]S[NMeY][dK](Nicotinoyl)L-NHPhenethyl), the “LHRH antagonist potency (pA2)” value came to 8.48.
As for `CC(=O)N[C@H](Cc1ccc2ccccc2c1)C(=O)N[C@H](Cc1ccc(Cl)cc1)C(=O)N[C@H](Cc1cccnc1)C(=O)N[C@@H](CO)C(=O)N(C)[C@@H](Cc1ccc(O)cc1)C(=O)N[C@H](CCCCNC(=O)c1cccnc1)C(=O)N[C@@H](CC(C)C)C(=O)NCCNC(C)C` [Example 9, NAcD2Nal-D4ClPhe-D3Pal-Ser-NMeTyr-DLys(Nic)-Leu-NH--(CH2)2 NH-isopropyl] (Ac-[d2Nal][dPhe(4-Cl)][d3Pal]S[NMeY][dK](Nicotinoyl)L-X4), the figure is 10.21; as for `CC(=O)N[C@H](Cc1ccc2ccccc2c1)C(=O)N[C@H](Cc1ccc(Cl)cc1)C(=O)N[C@H](Cc1cccnc1)C(=O)N[C@@H](CO)C(=O)N(C)[C@@H](Cc1ccc(O)cc1)C(=O)N[C@H](CCCCNC(=O)c1cccnc1)C(=O)N[C@@H](CC(C)C)C(=O)NCCCCCCCN` [Example 10, NAcD2Nal-D4ClPhe-D3Pal-Ser-NMeTyr-DLys(Nic)-Leu-NH--(CH2)7 NH2] (Ac-[d2Nal][dPhe(4-Cl)][d3Pal]S[NMeY][dK](Nicotinoyl)L-{NH(CH2)7NH2}), 8.76; as for `CC(=O)N[C@H](Cc1ccc2ccccc2c1)C(=O)N[C@H](Cc1ccc(Cl)cc1)C(=O)N[C@H](Cc1cccnc1)C(=O)N[C@@H](CO)C(=O)N(C)[C@@H](Cc1ccc(O)cc1)C(=O)N[C@H](CCCCNC(=O)c1cccnc1)C(=O)N[C@@H](CC(C)C)C(=O)NCCCCCCNC(=N)N` [Example 11, NAcD2Nal-D4ClPhe-D3Pal-Ser-NMeTyr-DLys(Nic)-Leu-NH--(CH2)6 NH(C=NH)NH2] (Ac-[d2Nal][dPhe(4-Cl)][d3Pal]S[NMeY][dK](Nicotinoyl)L-X10), 9.10.
Take `CC(=O)N[C@H](Cc1ccc2ccccc2c1)C(=O)N[C@H](Cc1ccc(Cl)cc1)C(=O)N[C@H](Cc1cccnc1)C(=O)N[C@@H](CO)C(=O)N(C)[C@@H](Cc1ccc(O)cc1)C(=O)N[C@H](CCCCNC(=O)c1cccnc1)C(=O)N[C@@H](CC(C)C)C(=O)NCCCCCNC(C)C` [Example 12, NAcD2Nal-D4ClPhe-D3Pal-Ser-NMeTyr-DLys(Nic)-1-Leu-NH--(CH2)5 NH-isopropyl] (Ac-[d2Nal][dPhe(4-Cl)][d3Pal]S[NMeY][dK](Nicotinoyl)L-X11): the “LHRH antagonist potency (pA2)” value was found to be 10.45.
Take `CC(=O)N[C@H](Cc1ccc2ccccc2c1)C(=O)N[C@H](Cc1ccc(Cl)cc1)C(=O)N[C@H](Cc1cccnc1)C(=O)N[C@@H](CO)C(=O)N(C)[C@@H](Cc1ccc(O)cc1)C(=O)N[C@H](CCCCNC(=O)c1cccnc1)C(=O)N[C@@H](CC(C)C)C(=O)NCCCCCN` [Example 13, NAcD2Nal-D4ClPhe-D3Pal-Ser-NMeTyr-DLys(Nic)-Leu-NH--(CH2)5 NH2] (Ac-[d2Nal][dPhe(4-Cl)][d3Pal]S[NMeY][dK](Nicotinoyl)L-{NH(CH2)5NH2}): the “LHRH antagonist potency (pA2)” value amounted to 9.30.
For the compound `CC(=O)N[C@H](Cc1ccc2ccccc2c1)C(=O)N[C@H](Cc1ccc(Cl)cc1)C(=O)N[C@H](Cc1cccnc1)C(=O)N[C@@H](CO)C(=O)N(C)[C@@H](Cc1ccc(O)cc1)C(=O)N[C@H](CCCCNC(=O)c1cccnc1)C(=O)N[C@@H](CC(C)C)C(=O)NCCCCCNC(=N)N` [Example 14, NAcD2Nal-D4ClPhe-D3Pal-Ser-NMeTyr-DLys(Nic)-Leu-NH--(CH2)5 NH(C=NH)NH2] (Ac-[d2Nal][dPhe(4-Cl)][d3Pal]S[NMeY][dK](Nicotinoyl)L-X12), the “LHRH antagonist potency (pA2)” value worked out at 9.81.
With `CC(=O)N[C@H](Cc1ccc2ccccc2c1)C(=O)N[C@H](Cc1ccc(Cl)cc1)C(=O)N[C@H](Cc1cccnc1)C(=O)N[C@@H](CO)C(=O)N(C)[C@@H](Cc1ccc(O)cc1)C(=O)N[C@H](CCCCNC(=O)c1cccnc1)C(=O)N[C@@H](CC(C)C)C(=O)NCCCN` [Example 15, NAcD2Nal-D4ClPhe-D3Pal-Ser-NMeTyr-DLys(Nic)-Leu-NH--(CH2)3 NH2] (Ac-[d2Nal][dPhe(4-Cl)][d3Pal]S[NMeY][dK](Nicotinoyl)L-{NH(CH2)3NH2}), the “LHRH antagonist potency (pA2)” value stood at 8.70.
Under `CC(=O)N[C@H](Cc1ccc2ccccc2c1)C(=O)N[C@H](Cc1ccc(Cl)cc1)C(=O)N[C@H](Cc1cccnc1)C(=O)N[C@@H](CO)C(=O)N(C)[C@@H](Cc1ccc(O)cc1)C(=O)N[C@H](CCCCNC(=O)c1cccnc1)C(=O)N[C@@H](CC(C)C)C(=O)NCCNC(=N)N` [Example 16, NAcD2Nal-D4ClPhe-D3Pal-Ser-NMeTyr-DLys(Nic)-Leu-NH--(CH2)2 NH(C=NH)NH2] (Ac-[d2Nal][dPhe(4-Cl)][d3Pal]S[NMeY][dK](Nicotinoyl)L-X2) stands 8.89.
